Assay results taken from US20100168038A1, “USE OF COMPOUNDS IN COMBINATION WITH GAMMA-IRRADIATION FOR THE TREATMENT OF CANCER” (priority 2006, published 2010).
“And” between values parts separate entries of the source, which are not always exact repeats. Identical values can stand only once. Residues, ends and D or L forms follow the SMILES beside them.

Target: T1, TPP II (Mus musculus, UniProt Q64514)
T1 construct: 1 ug of high molecular weight protein was used as enzyme in peptidase assays; endogenous in cells
Assay: TPP II peptidase assay: cleavage of fluorogenic substrate AAF-AMC by enriched TPP II
Format: biochemical
Conditions: for cleavage of AAF-AMC in presence of compound, mean: mean of 3 readings; for cleavage of AAF-AMC in presence of compound: single reading
Protocol: In one non-limiting example of purification of TPP II, 100×10^6 cells (such as EL-4 cells) were sedimented and lysed by vortexing in glass beads and homogenisation buffer (50 mM Tris Base pH 7.5, 250 mM Sucrose, 5 mM MgCl2, 1 mM DTT). Cellular lysates were subjected to differential centrifugation; first the cellular homogenate was centrifuged at 14,000 rpm for 15 min, and then the supernatant was transferred to ultra-centrifugation tubes. Next the sample was ultra-centrifugated at 100,000×g for 1 hour, and the supernatant (denoted as cytosol in most biochemical literature) was subjected to 100,000×g centrifugation for 5 hours, which sedimented high molecular weight cytosolic proteins/protein complexes. The resulting pellet dissolved in 50 mM Tris Base pH 7.5, 30% Glycerol, 5 mM MgCl2, and 1 mM DTT, and 1 ug of high molecular weight protein was used as enzyme in peptidase assays.
It is possible to test the activity of TPP II using for example the substrate AAF-AMC (Sigma, St. Louis, Mo.). This may for example be used at 100 uM concentration in 100 ul of test buffer composed of 50 mM Tri Base pH 7.5, 5 mM MgCl2 and 1 mM DTT. It is possible to stop reactions using dilution with 900 ul 1% SDS solution. Cleavage activity may be measured for example by emission at 460 nm in a LS50B Luminescence Spectrometer (Perkin Elmer, Boston, Mass.).
Protein Purification, Peptidase Assays and Analysis of DNA Fragmentation. 100×10^6 cells were sedimented and lysed by vortexing in glass beads and homogenisation buffer (50 mM Tris Base pH 7.5, 250 mM Sucrose, 5 mM MgCl2, 1 mM DTT). Cellular lysates were submitted to differential centrifugation where a supernatant from a 1 hour centrifugation at 100,000×g (cytosol) was submitted to 100,000×g centrifugation for 3-5 hours, which sedimented high molecular weight cytosolic proteins/protein complexes. The resulting pellet dissolved in 50 mM Tris Base pH 7.5, 30% Glycerol, 5 mM MgCl2, and 1 mM DTT, and 1 micro-g of high molecular weight protein was used as enzyme in peptidase assays or in Western blotting for TPP II expression. To test the activity of TPP II we used the substrate AAF-AMC (Sigma, St. Louis, Mo.), at 100 micro-M concentration in 100 micro-l of test buffer composed of 50 mM Tri Base pH 7.5, 5 mM MgCl2 and 1 mM DTT. Cleavage activity was measured by emission at 460 nm in a LS50B Luminescence Spectrometer (Perkin Elmer, Boston, Mass.). For analysis of DNA fragmentation cells were seeded in 12-well plates at 10^6 cells/ml and exposed to 25 micro-M etoposide, a DNA topoisomerase II inhibitor commonly used as an apoptosis-inducing agent, to starvation (50% PBS). Cells were seeded at 10^6 cells/ml in 12-well plates and incubated for the indicated times, usually 18-24 hours. DNA from EL-4 control and adapted cells was purified by standard chloroform extraction, and 2.5 micro-g of DNA was loaded on 1.8% agarose gel for detection of DNA from apoptotic cells.
TPP II protein was enriched, and then a TPP II-preferred fluorogenic substrate AAF-AMC was used. 100×10^6 cells were sedimented and lysed by vortexing in glass beads and homogenisation buffer (50 mM Tris Base pH 7.5, 250 mM Sucrose, 5 mM MgCl2, 1 mM DTT). Cellular lysates were subjected to differential centrifugation; first the cellular homogenate was centrifuged at 14,000 rpm for 15 min, and then the supernatant was transferred to ultra-centrifugation tubes. Next the sample was ultra-centrifugated at 100,000×g for 1 hour, and the supernatant (denoted as cytosol in most biochemical literature) was subjected to 100,000×g centrifugation for 5 hours, which sedimented high molecular weight cytosolic proteins/protein complexes.

T1 sequence (Q64514 2-1262 limits assumed): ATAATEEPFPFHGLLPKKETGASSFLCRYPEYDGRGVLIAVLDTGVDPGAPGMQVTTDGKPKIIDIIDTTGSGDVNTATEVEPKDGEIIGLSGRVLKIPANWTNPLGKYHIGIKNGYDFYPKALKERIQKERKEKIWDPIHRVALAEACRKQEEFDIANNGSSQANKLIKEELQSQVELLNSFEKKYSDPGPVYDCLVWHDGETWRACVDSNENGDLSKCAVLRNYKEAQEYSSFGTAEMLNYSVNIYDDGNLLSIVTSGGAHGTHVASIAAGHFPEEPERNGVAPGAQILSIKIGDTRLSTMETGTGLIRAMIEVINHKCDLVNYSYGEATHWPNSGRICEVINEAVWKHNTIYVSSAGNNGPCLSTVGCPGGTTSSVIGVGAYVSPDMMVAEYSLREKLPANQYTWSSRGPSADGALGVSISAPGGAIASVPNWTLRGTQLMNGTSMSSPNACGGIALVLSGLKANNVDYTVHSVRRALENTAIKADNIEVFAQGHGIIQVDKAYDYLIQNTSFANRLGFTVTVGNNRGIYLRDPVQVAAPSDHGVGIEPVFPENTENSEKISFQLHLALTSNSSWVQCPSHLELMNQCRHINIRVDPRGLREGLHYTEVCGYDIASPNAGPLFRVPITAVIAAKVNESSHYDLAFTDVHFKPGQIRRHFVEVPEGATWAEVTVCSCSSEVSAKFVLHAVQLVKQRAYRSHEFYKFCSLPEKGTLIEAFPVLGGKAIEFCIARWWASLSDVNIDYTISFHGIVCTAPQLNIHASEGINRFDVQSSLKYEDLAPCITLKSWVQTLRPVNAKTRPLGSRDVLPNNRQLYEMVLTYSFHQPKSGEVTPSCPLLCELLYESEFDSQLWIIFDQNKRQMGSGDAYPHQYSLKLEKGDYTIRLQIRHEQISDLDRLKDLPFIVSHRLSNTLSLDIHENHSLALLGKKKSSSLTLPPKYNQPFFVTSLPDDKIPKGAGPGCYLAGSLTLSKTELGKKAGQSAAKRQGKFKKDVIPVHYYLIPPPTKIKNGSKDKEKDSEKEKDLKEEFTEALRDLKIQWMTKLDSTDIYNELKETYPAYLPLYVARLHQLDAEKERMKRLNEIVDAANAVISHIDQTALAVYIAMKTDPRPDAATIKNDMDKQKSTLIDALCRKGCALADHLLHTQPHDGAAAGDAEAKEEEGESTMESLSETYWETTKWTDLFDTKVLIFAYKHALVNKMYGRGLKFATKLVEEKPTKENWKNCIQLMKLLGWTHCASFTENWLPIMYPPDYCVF

Question: CC(C)C[C@H](NC(=O)CNC(=O)OCc1ccccc1)C(=O)N[C@@H](C)C(=O)O [Z-GLA-OH, Z-Gly-Leu-Ala-OH] (HELM PEPTIDE1{[O=C(OCc1ccccc1)[*:2]].G.L.A}$$$$V2.0) was tested. Which “TPPII inhibition, in words” value did it give?
Answer: Its value is “efficiently inhibited TPPII”.

Question: What about the “cleavage of AAF-AMC in presence of compound, mean” value (from here on “cleavage of AAF-AMC … mean”) (compound 1 nM) of the same compound?
Answer: Its value is 32.85 fluorometric units.

Question: What about the “cleavage of AAF-AMC in presence of compound” value (compound 1 nM) of the same compound?
Answer: Its value is 32.54 fluorometric units and 32.61 fluorometric units and 33.41 fluorometric units.

Question: And the “cleavage of AAF-AMC … mean” value (compound 10 nM)?
Answer: Its value is 22.70 fluorometric units.

Question: And the “cleavage of AAF-AMC in presence of compound” value (compound 10 nM)?
Answer: The value was 21.74 fluorometric units and 21.93 fluorometric units and 24.44 fluorometric units.

Question: What about the “cleavage of AAF-AMC … mean” value (compound 100 nM) of the same compound?
Answer: Its value is 14.35 fluorometric units.

Question: And the “cleavage of AAF-AMC in presence of compound” value (compound 100 nM)?
Answer: The value was 14.43 fluorometric units and 14.26 fluorometric units and 14.37 fluorometric units.

Question: And the “cleavage of AAF-AMC … mean” value (compound 1 uM)?
Answer: The value was 11.60 fluorometric units.

Question: What about the “cleavage of AAF-AMC in presence of compound” value (compound 1 uM) of the same compound?
Answer: The value was 11.43 fluorometric units and 11.9 fluorometric units and 11.46 fluorometric units.

Question: What about the “cleavage of AAF-AMC … mean” value (compound 10 uM) of the same compound?
Answer: The value was 7.21 fluorometric units.

Question: What about the “cleavage of AAF-AMC in presence of compound” value (compound 10 uM) of the same compound?
Answer: The value was 6.47 fluorometric units and 7.66 fluorometric units and 7.49 fluorometric units.

Question: And the “cleavage of AAF-AMC … mean” value (compound 100 uM)?
Answer: Its value is 1.38 fluorometric units.

Question: And the “cleavage of AAF-AMC in presence of compound” value (compound 100 uM)?
Answer: Its value is 1.14 fluorometric units and 1.44 fluorometric units and 1.55 fluorometric units.

Question: And the Ki (partially purified TPPII enzyme, fluorimetry, read-out: Ki50, inhibited TPPII cleavage of the substrate AAF-AMC)?
Answer: The Ki was ~10 nM.
